Measurements as given in PubChem BioAssay (NCI).
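Dose response: 5 concentrations. Exposure: 48 h. Format: 96-well plates. Endpoint: linear interpolation; highest concentration if not reached. TGI: concentration producing complete growth inhibition.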

Legend:
Assay in all cases: NCI tumour cell line growth inhibition, 48 h
MCF7 breast = system: MCF7 breast
UO-31 renal = system: UO-31 renal
COLO 205 colon = system: COLO 205 colon
LOX IMVI melanoma = system: LOX IMVI melanoma
SF-539 CNS = system: SF-539 CNS
A498 renal = system: A498 renal
NCI-H23 lung = system: NCI-H23 lung
BT-549 breast = system: BT-549 breast
K-562 leukemia = system: K-562 leukemia
NCI/ADR-RES ovarian = system: NCI/ADR-RES ovarian
SK-MEL-28 melanoma = system: SK-MEL-28 melanoma
NCI-H226 lung = system: NCI-H226 lung
CAKI-1 renal = system: CAKI-1 renal
786-0 renal = system: 786-0 renal
NCI-H460 lung = system: NCI-H460 lung
RXF 393 renal = system: RXF 393 renal
OVCAR-5 ovarian = system: OVCAR-5 ovarian
SK-MEL-2 melanoma = system: SK-MEL-2 melanoma
MDA-MB-435 = system: MDA-MB-435
M14 melanoma = system: M14 melanoma
SW-620 colon = system: SW-620 colon
SK-OV-3 ovarian = system: SK-OV-3 ovarian
CCRF-CEM leukemia = system: CCRF-CEM leukemia
OVCAR-3 ovarian = system: OVCAR-3 ovarian
ACHN renal = system: ACHN renal
SNB-19 CNS = system: SNB-19 CNS
HCT-15 colon = system: HCT-15 colon
MALME-3M melanoma = system: MALME-3M melanoma
UACC-62 melanoma = system: UACC-62 melanoma
SN12C renal = system: SN12C renal
TK-10 renal = system: TK-10 renal
DU-145 prostate = system: DU-145 prostate
HS 578T breast = system: HS 578T breast
MDA-MB-231 breast = system: MDA-MB-231 breast
RPMI-8226 leukemia = system: RPMI-8226 leukemia
U251 CNS = system: U251 CNS
IGROV1 ovarian = system: IGROV1 ovarian
A549 NSCLC = system: A549 NSCLC
SNB-75 CNS = system: SNB-75 CNS
UACC-257 melanoma = system: UACC-257 melanoma
SF-268 CNS = system: SF-268 CNS
MOLT-4 leukemia = system: MOLT-4 leukemia
HOP-92 NSCLC = system: HOP-92 NSCLC
KM12 colon = system: KM12 colon
SK-MEL-5 melanoma = system: SK-MEL-5 melanoma
HL-60(TB) leukemia = system: HL-60(TB) leukemia
HOP-62 NSCLC = system: HOP-62 NSCLC
MDA-N = system: MDA-N
SF-295 CNS = system: SF-295 CNS
HCT-116 colon = system: HCT-116 colon
T-47D breast = system: T-47D breast
SR leukemia = system: SR leukemia
PC-3 prostate = system: PC-3 prostate
HT29 colon = system: HT29 colon
OVCAR-8 ovarian = system: OVCAR-8 ovarian
NCI-H522 lung = system: NCI-H522 lung
HCC-2998 colon = system: HCC-2998 colon
EKVX NSCLC = system: EKVX NSCLC

CN(C)CCn1c(=O)c2ccc(NCCCN(C)CCCNc3ccc4c(=O)n(CCN(C)C)c(=O)n5c6ccccc6c(=O)c3c45)c3c(=O)c4ccccc4n(c1=O)c23
TGI (MCF7 breast): 904 nM | TGI (UO-31 renal): 530 nM | TGI (COLO 205 colon): 376 nM | TGI (LOX IMVI melanoma): 164 nM | TGI (SF-539 CNS): 1780 nM | TGI (A498 renal): 2130 nM | TGI (NCI-H23 lung): 546 nM | TGI (BT-549 breast): 1750 nM | TGI (K-562 leukemia): 1300 nM | TGI (NCI/ADR-RES ovarian): 1480 nM | TGI (SK-MEL-28 melanoma): 1940 nM | TGI (NCI-H226 lung): 535 nM | TGI (CAKI-1 renal): 426 nM | TGI (786-0 renal): 1080 nM | TGI (NCI-H460 lung): 139 nM | TGI (RXF 393 renal): 362 nM | TGI (OVCAR-5 ovarian): 3560 nM | TGI (SK-MEL-2 melanoma): 2440 nM | TGI (MDA-MB-435): 127 nM | TGI (M14 melanoma): 1900 nM | TGI (SW-620 colon): 231 nM | TGI (SK-OV-3 ovarian): 2430 nM | TGI (CCRF-CEM leukemia): 81.9 nM | TGI (OVCAR-3 ovarian): 1210 nM | TGI (ACHN renal): 949 nM | TGI (SNB-19 CNS): 1330 nM | TGI (HCT-15 colon): 421 nM | TGI (MALME-3M melanoma): 2330 nM | TGI (UACC-62 melanoma): 1580 nM | TGI (SN12C renal): 1180 nM | TGI (TK-10 renal): 1480 nM | TGI (DU-145 prostate): 533 nM | TGI (HS 578T breast): 1760 nM | TGI (MDA-MB-231 breast): 540 nM | TGI (RPMI-8226 leukemia): 231 nM | TGI (U251 CNS): 1060 nM | TGI (IGROV1 ovarian): 194 nM | TGI (A549 NSCLC): 472 nM | TGI (SNB-75 CNS): 334 nM | TGI (UACC-257 melanoma): 1820 nM | TGI (SF-268 CNS): 2110 nM | TGI (MOLT-4 leukemia): 85.3 nM | TGI (HOP-92 NSCLC): 735 nM | TGI (KM12 colon): 590 nM | TGI (SK-MEL-5 melanoma): 1170 nM | TGI (HL-60(TB) leukemia): 1060 nM | TGI (HOP-62 NSCLC): 838 nM | TGI (MDA-N): 1600 nM | TGI (SF-295 CNS): 1540 nM | TGI (HCT-116 colon): 1030 nM | TGI (T-47D breast): 8330 nM | TGI (SR leukemia): 504 nM | TGI (PC-3 prostate): 654 nM | TGI (HT29 colon): 1060 nM | TGI (OVCAR-8 ovarian): 490 nM | TGI (NCI-H522 lung): 517 nM | TGI (HCC-2998 colon): 224 nM | TGI (EKVX NSCLC): 1100 nM
